Source: US20240261417A1, “SOS1 DEGRADING AGENT AND PREPARATION METHOD THEREFOR AND APPLICATION THEREOF” (SHANGHAI LEADINGTAC PHARMACEUTICAL CO. LTD., priority 2021, published 2024)

Target: T1, SOS1 protein (Homo sapiens, UniProt Q07889)
T1 sequence (Q07889 1-1333): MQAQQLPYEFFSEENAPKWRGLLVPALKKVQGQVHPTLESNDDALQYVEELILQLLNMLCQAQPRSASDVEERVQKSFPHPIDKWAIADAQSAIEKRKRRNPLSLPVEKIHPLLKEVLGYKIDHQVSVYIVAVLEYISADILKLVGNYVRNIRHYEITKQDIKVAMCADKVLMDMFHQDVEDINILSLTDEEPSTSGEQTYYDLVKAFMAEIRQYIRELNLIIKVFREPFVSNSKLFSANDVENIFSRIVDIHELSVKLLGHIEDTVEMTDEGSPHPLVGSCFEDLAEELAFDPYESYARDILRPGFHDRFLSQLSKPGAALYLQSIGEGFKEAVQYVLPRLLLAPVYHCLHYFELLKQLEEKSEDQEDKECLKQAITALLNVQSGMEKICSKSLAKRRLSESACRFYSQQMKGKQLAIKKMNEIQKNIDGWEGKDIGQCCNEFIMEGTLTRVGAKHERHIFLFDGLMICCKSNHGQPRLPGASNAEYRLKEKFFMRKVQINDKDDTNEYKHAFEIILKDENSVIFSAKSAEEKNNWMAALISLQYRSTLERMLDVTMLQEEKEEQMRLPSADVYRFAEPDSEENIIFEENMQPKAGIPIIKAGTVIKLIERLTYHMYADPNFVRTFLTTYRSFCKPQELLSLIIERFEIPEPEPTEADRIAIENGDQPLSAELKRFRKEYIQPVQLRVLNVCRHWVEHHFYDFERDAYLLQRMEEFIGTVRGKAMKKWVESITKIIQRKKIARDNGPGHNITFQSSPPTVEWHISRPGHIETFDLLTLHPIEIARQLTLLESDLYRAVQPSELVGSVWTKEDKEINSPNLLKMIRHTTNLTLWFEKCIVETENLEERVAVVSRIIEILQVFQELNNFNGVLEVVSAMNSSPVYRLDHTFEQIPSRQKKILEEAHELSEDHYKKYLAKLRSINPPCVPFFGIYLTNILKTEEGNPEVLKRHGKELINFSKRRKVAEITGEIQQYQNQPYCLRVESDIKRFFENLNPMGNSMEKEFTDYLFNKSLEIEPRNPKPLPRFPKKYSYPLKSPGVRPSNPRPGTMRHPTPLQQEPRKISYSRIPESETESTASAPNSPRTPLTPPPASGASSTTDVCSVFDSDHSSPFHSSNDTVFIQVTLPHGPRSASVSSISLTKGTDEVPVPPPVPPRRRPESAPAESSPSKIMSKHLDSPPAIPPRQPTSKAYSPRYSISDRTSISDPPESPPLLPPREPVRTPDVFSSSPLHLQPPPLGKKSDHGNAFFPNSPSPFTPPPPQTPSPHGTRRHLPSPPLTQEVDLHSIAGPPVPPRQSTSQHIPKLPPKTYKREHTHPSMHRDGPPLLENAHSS
Test: SOS1 degradation assay (Western blot), NCI-H358 cells
Assay type: cell-based
Parameters: The degradation of SOS1 by the compounds was investigated on KRAS G12C mutant human non-small cell lung cancer cells NCI-H358; host or cells: NCI-H358 (human cancer cell lines)
Details: SOS1 degradation, NCI-H358 cells, 24 h, Western blot; for DC50: read-out: NCI-H358 (G12C) DC50; for Dmax: read-out: NCI-H358 (G12C) Dmax
Description: The specific procedures were as follows:
0.95 mL of cells were seeded into each well of a 24-well cell culture plate to achieve a cell density of 5×10^5 cells/well; the cell plate was incubated in an incubator at 37° C. with 5% CO2 overnight. Then 50 μL of the compound solution after dilution was added to each of the wells with the corresponding cells, so that the final concentration of the compound was in a range of 0.03-3000 nM. […] After dosing, the cell plate was incubated in an incubator at 37° C. with 5% CO2 for 24 h. […] After the plate was left to stand on ice for 30 min, the protein lysate in each well was transferred to a 1.5 mL centrifuge tube and centrifuged at 15000 g for 20 min at 4° C. The cell lysate supernatant after centrifugation was cryopreserved at −80° C. for testing and was used for determining the degradation level of the SOS1 protein by a WB method. The concentration of total protein in the cell lysate supernatant was determined using the BCA Protein Quantification Kit (Tiangen, PA115-02).
The concentration of total protein in the cell lysate was determined by BCA. The total protein was adjusted to 0.5 μg/μL with PBS and 5× SDS-PAGE protein loading buffer (Beyotime, P0015L), incubated in a water bath at 100° C. for 15 min, incubated in an ice bath on ice for 5 min, centrifuged at 14000 g for 1 min at 4° C., and mixed well as a loading sample for WB. Protein electrophoresis was performed on a precast gel (KeyGEN, KGMGO10W15) with a loading volume of 10 μL (total protein: 5 μg) using a Tris-MOPS-SDS running solution (Adamas, P1598253) at a constant voltage of 120 V for 55 min. After the electrophoresis, the protein on the gel strip was transferred to a PVDF membrane at a constant current of 250 mA for 65 min. After the membrane transfer, the membrane was incubated in 1× QuickBlock blocking buffer (Beyotime, P0235) for 30 min at room temperature. […] The protein map was subjected to gray value analysis by the chemiluminescence imaging system from Clinx. […] Then the degradation rate was calculated by comparing the gray correction value with the gray correction value of the control group. Then nonlinear curve fitting was performed by GraphPad Prism 8 in the logarithmic concentration-inhibition rate to obtain the DC50 and Dmax values of the compounds.

SMILES | DC50 | Dmax | NCI-H358 (G12C) Dmax
COc1cc2nc(C)nc(N[C@H](C)c3cc(N)cc(C(F)(F)F)c3)c2cc1C1CCC(C(=O)N2CCN(CC3CCC4(CC3)CCN(C(=O)c3ccc(C5CCC(=O)NC5=O)cc3)CC4)CC2)CC1 (stereo partly drawn) [Example 23, 3-(4-(9-((4-((1R,4R)-4-(4-(((R)-1-(3-amino-5-(trifluoromethyl)phenyl)ethyl)amino)-7-methoxy-2-methylquinazolin-6-yl)cyclohexane-1-carbonyl)piperazin-1-yl)methyl)-3-azaspiro[5.5]undecane-3-carbonyl)phenyl)piperidine-2,6-dione] | < 50 nM |  | B (when 50≤Dmax (%)<80, the level was B)
CCNc1cc([C@@H](C)Nc2nc(C)nc3cc(OC)c([C@H]4CC[C@H](C(=O)N5CCN(CC6CCC7(CC6)CCN(C(=O)c6ccc(Cl)c(N8CCC(=O)NC8=O)c6)CC7)CC5)CC4)cc23)cc(C(F)(F)F)c1 [Example 35, 1-(2-chloro-5-(9-((4-((1R,4R)-4-(4-(((R)-1-(3-(ethylamino)-5-(trifluoromethyl)phenyl)ethyl)amino)-7-methoxy-2-methylquinazolin-6-yl)cyclohexane-1-carbonyl)piperazin-1-yl)methyl)-3-azaspiro[5.5]undecane-3-carbonyl)phenyl)dihydropyrimidine-2,4(1H,3H)-dione] | 1000 to 10000 nM |  | C (when 30≤Dmax (%)<50, the level was C)
COc1cc2nc(C)nc(N[C@H](C)c3cc(N)cc(C(F)(F)F)c3)c2cc1[C@H]1CC[C@H](C(=O)N2CCN(CC#CC3CCN(C(=O)c4ccc(Cl)c(N5CCC(=O)NC5=O)c4)CC3)CC2)CC1 [Example 27, 1-(5-(4-(3-(4-((1R,4R)-4-(4-(((R)-1-(3-amino-5-(trifluoromethyl)phenyl)ethyl)amino)-7-methoxy-2-methylquinazolin-6-yl)cyclohexane-1-carbonyl)piperazin-1-yl)prop-1-yn-1-yl)piperidine-1-carbonyl)-2-chlorophenyl)dihydropyrimidine-2,4(1H,3H)-dione] | 1000 to 10000 nM | < 30% | 
COc1cc2nc(C)nc(N[C@H](C)c3cc(N)cc(C(F)(F)F)c3)c2cc1[C@H]1CC[C@H](C(=O)N2CCC(CN3CCC4(CC3)CCN(C(=O)c3ccc(Cl)c(N5CCC(=O)NC5=O)c3)CC4)CC2)CC1 [Example 7, 1-(5-(9-((1-((1R,4R)-4-(4-(((R)-1-(3-amino-5-(trifluoromethyl)phenyl)ethyl)amino)-7-methoxy-2-methylquinazolin-6-yl)cyclohexane-1-carbonyl)piperidin-4-yl)methyl)-3,9-diazaspiro[5.5]undecane-3-carbonyl)-2-chlorophenyl)dihydropyrimidine-2,4(1H,3H)-dione] | 1000 to 10000 nM | 30 to 50% | 

Second part, led by results:

DC50 | Dmax | SMILES | NCI-H358 (G12C) Dmax
50 to 100 nM | 80 to 100% | COc1cc2nc(C)nc(N[C@H](C)c3cc(N)cc(C(F)(F)F)c3)c2cc1OC1CCN(C(=O)C2CCN(CC3CCC4(CC3)CCN(C(=O)c3ccc(Cl)c(N5CCC(=O)NC5=O)c3)CC4)CC2)CC1 [Example 5, (R)-1-(5-(9-((4-(4-((4-((1-(3-amino-5-(trifluoromethyl)phenyl)ethyl)amino)-7-methoxy-2-methylquinazolin-6-yl)oxy)piperidine-1-carbonyl)piperidin-1-yl)methyl)-3-azaspiro[5.5]undecane-3-carbonyl)-2-chlorophenyl)dihydropyrimidine-2,4(1H,3H)-dione] | 
1000 to 10000 nM | 30 to 50% | COc1cc2nc(C)nc(N[C@H](C)c3cc(N)cc(C(F)(F)F)c3)c2cc1[C@H]1CC[C@H](C(=O)N2CCN(CC3CCC4(CC3)CCN(C(=O)c3ccc(N5CCC(=O)NC5=O)cc3)CC4)CC2)CC1 [Example 22, 1-(4-(9-((4-((1R,4R)-4-(4-(((R)-1-(3-amino-5-(trifluoromethyl)phenyl)ethyl)amino)-7-methoxy-2-methylquinazolin-6-yl)cyclohexane-1-carbonyl)piperazin-1-yl)methyl)-3-azaspiro[5.5]undecane-3-carbonyl)phenyl)dihydropyrimidine-2,4(1H,3H)-dione] | 
< 50 nM | 80 to 100% | COc1cc2nc(C)nc(N[C@H](C)c3cc(N)cc(C(F)(F)F)c3)c2cc1[C@H]1CC[C@H](C(=O)N2CCN(CCCCC3CCN(C(=O)c4ccc(Cl)c(N5CCC(=O)NC5=O)c4)CC3)CC2)CC1 [Example 29, 1-(5-(4-(4-(4-((1R,4R)-4-(4-(((R)-1-(3-amino-5-(trifluoromethyl)phenyl)ethyl)amino)-7-methoxy-2-methylquinazolin-6-yl)cyclohexane-1-carbonyl)piperazin-1-yl)butyl)piperidine-1-carbonyl)-2-chlorophenyl)dihydropyrimidine-2,4(1H,3H)-dione] | 
100 to 500 nM | 50 to 80% | COc1ccc(C(=O)N2CCC(COCCC3CCN(C(=O)[C@H]4CC[C@H](c5cc6c(N[C@H](C)c7cc(N)cc(C(F)(F)F)c7)nc(C)nc6cn5)CC4)CC3)CC2)cc1N1CCC(=O)NC1=O [Example 36, 1-(5-(4-((2-(1-((1R,4R)-4-(4-(((R)-1-(3-amino-5-(trifluoromethyl)phenyl)ethyl)amino)-2-methylpyrido[3,4-d]pyrimidin-6-yl)cyclohexane-1-carbonyl)piperidin-4-yl)ethoxy)methyl)piperidine-1-carbonyl)-2-methoxyphenyl)dihydropyrimidine-2,4(1H,3H)-dione] | 
< 50 nM | 50 to 80% | COc1cc2nc(C)nc(N[C@H](C)c3cc(N)cc(C(F)(F)F)c3)c2cc1[C@H]1CC[C@H](C(=O)N2CCC(CCCC3CCN(C(=O)c4ccc(Cl)c(N5CCC(=O)NC5=O)c4)CC3)CC2)CC1 [Example 14, 1-(5-(4-(3-(1-((1R,4R)-4-(4-(((R)-1-(3-amino-5-(trifluoromethyl)phenyl)ethyl)amino)-7-methoxy-2-methylquinazolin-6-yl)cyclohexane-1-carbonyl)piperidin-4-yl)propyl)piperidine-1-carbonyl)-2-chlorophenyl)dihydropyrimidine-2,4(1H,3H)-dione] | 
